In patent US20100222285A1, “METHOD OF CONTROLLING THE PROLIFERATION OF VASCULAR ENDOTHELIAL CELLS AND INHIBITING LUMEN FORMATION” (Rare Sugar Production Technical Research Laboratories, LLC, priority 2004, published 2010):
“Also recorded” adds a separate entry of the source.

Key:
[1] = test system: Human umbilical cord vascular endothelial cells (HUVEC); assay: Experiment of growth: HUVEC cell number by WST-8 after 48 hrs; format: cell-based; conditions: for inhibition at 20000 µM: 20 mM, read-out: inhibition of growth to the control group; for antagonism of the growth inhibitory effect by D-glucose: co-existence of 20 mM D-glucose
Description: Human umbilical cord vascular endothelial cells (HUVEC) were purchased as primary cultured cells from KURABO (Kurabo Co., Osaka, Japan) and the cells up to P8 were used in experiments. The cells were inoculated on a 96-well plate at a rate of 3000 cells/well, and allowed to stand in Humedia EG2 (Kurabo) overnight (37° C., 5% CO2). Next morning, the medium was replaced by 90 μl of 2% FBS-containing Humedia EB2 (Kurabo), to which was then added 10 μl of additive, and after a lapse of 48 hrs the number of cells was counted. No medium was exchanged during this period. In counting, a tetrazolium salt WST-8 was added to each well (0.5 mM), and after 2 hrs the absorbance was measured at 450 nm. The tetrazolium salt added was reduced with an intracellular dehydrogenase to yield formazan depending on the number of cells in the well. In advance, the absorbance at 450 nm was confirmed to show a linearity within the range of 500 to 12000 cells in the well.

[2] = test system: human endothelial cells and fibroblasts; assay: Experiment of luminal formation: concurrent culture, CD31 staining, area of the lumen; format: cell-based; conditions: for effect on the luminal formation: Example 1, 0.1-20 mM; for effect on the luminal formation of HUVEC: Example 2 (36 species), incubation for 10 days; for antagonism of the luminal formation inhibitory effect by D-glucose: co-existence of 20 mM D-glucose; for inhibition of the acceleration of luminal formation by VEGF: with VEGF
Description: Using a concurrent culture system of human endothelial cells and fibroblasts planted on a 24-well plate (Kurabo Co., Osaka, Japan), the culture medium was replaced by culture media containing a variety of additives at the early stage of luminal formation. Every 3 days, the medium was exchanged with the additive; 10 day after incubation, the endothelial cell only was stained by using mouse anti-human CD31 antibody (Kurabo Co., Osaka, Japan), goat anti-mouse IgG AlkP Conjugate (Kurabo Co., Osaka, Japan), and BCPI (5-bromo-4-chloro-3-indolyl phosphate) (Kurabo Co., Osaka, Japan) to photograph. The visualized area of the lumen was measured by means of NIH image software.

[3] = Basic safety tests (mutagenicity, biodegradable test, 3 acute toxicity tests); conditions: oral acute toxicity, skin and ophthalmic primary irritation, by a designated organ
Description: The most important and highest hurdle in the development of approved drugs/quasi drugs or foods is to confirm safety of the rare sugar as a new substance. As the most basic safety tests, mutagenicity, biodegradable test and 3 acute toxicity tests (oral acute toxicity test, skin primary irritation test, ophthalmic primary irritation test) are decided. Since rare sugars are monosaccharides naturally occurring in very small quantities, it is necessary to examine exactly, though they are expected to be safe. We requested of a designated organ to examine the basic safety test on 3 species of rare sugars, i.e., D-psicose, D-allose and allitol. As a result, it was confirmed that there was no problem in any of the rare sugars.

HUVEC = assay: 14C-glucose up-take in vascular endothelial cell; format: cell-based, human; conditions: sugars 20 mM (2 mM for 2DG), 48 hours; for effect on the glucose up-take of HUVEC: both culture media ([GLU]=0.1 mM and 4.5 mM), VEGF 10 ng/mL; for effect on the glucose up-take accelerated by VEGF: with VEGF 10 ng/mL
Description: Most of the physiological actions of monosaccharides are likely to be caused by the structural similarity to D-glucose, and one of the mechanisms is considered to be an influence on glucose metabolism. Then, in order to elucidate the influence on metabolism, the effect of HUVEC on the glucose up-take was examined for FRU, ALO, PSI, ALL, 2DG, MAN, and GAL. ^14C-Glucose was added to a culture medium, and the incorporated amount after 48 hours was counted by a scintillation counter. HUVEC was inoculated on a 24-well plate at a rate of 12000 cells/well. The medium was allowed to stand in 400 μL of Humedia EB2+2% FBS overnight. Next day, the medium was replaced by a medium containing ^14C-glucose. The medium used in replacement was the total 400 μL/well of medium containing ^14C-glucose (360 μL)+saline/VEGF (20 μL)+saline/RS (20 μL). The stock solution of ^14C-glucose 100 Bq/μL saline was diluted 10-fold with 2% FBS-containing medium (glucose-free or low glucose) to give a culture medium of 10 Bq/μL. The experiment was carried out on a lower glucose medium (final concentration [GLU]=0.1 mM) and on a high glucose medium ([GLU]=4.5 mM). ^14C-glucose was added at 3600 Bq/well. Further, FRU: D-fructose, ALO: D-allose, PSI: D-psicose, ALL: allitol, 2DG: 2-deoxy glucose, MAN: D-mannose, or GAL: D-galactose was added to the medium as an additive at 20 mM (provided 2 mM for 2DC). Irritation for growth was also carried out with VEGF (10 ng/mL). After a lapse of 48 hours, the well was washed twice with PBS, to which was then added 200 μL of 2% Triton, of which 180 μL was used as a sample for scintillation counter. The incorporation of ^14C-glucose into the HUVEC cells was calculated from the count in each well in the unit of nmol/well and depicted in a graph.

[4] = in an aqueous solution; cited from earlier work
[5] = Example 2 (36 species), 48 hours

Molecule | effect on the growth of HUVEC ([1]; Example 1, 0.1-20 mM, 48 hrs) | effect on the growth of HUVEC [1, 5] | antagonism of the growth inhibitory effect by D-glucose [1] | effect on the luminal formation ([2]; 10 days) | result of the basic safety test [3] | effect on the glucose up-take of HUVEC (HUVEC) | effect on the glucose up-take accelerated by VEGF (HUVEC) | further results
O=C[C@H](O)[C@H](O)[C@H](O)[C@H](O)CO [A, D-allose] | effect was confirmed | inhibitory effect was observed | antagonized | effect was confirmed | no problem | inhibitory effect | inhibited | inhibition at 20000 µM ([1]; Homo sapiens, HUVEC, 48 hrs): 40 to 80%; effect on the luminal formation of HUVEC [2]: inhibitory effect was observed; inhibition at 20000 µM ([2]; Homo sapiens, 20 mM): 50 to 80%; antagonism of the luminal formation inhibitory effect by D-glucose [2]: no apparent effect; inhibition of the acceleration of luminal formation by VEGF [2]: inhibit the acceleration by VEGF
O=CC[C@@H](O)[C@H](O)[C@H](O)CO [2DG, 2-deoxy-D-glucose] | effect was confirmed | inhibitory effect was observed; also recorded: particularly strong action | no antagonism | effect was confirmed | – | inhibitory effect | inhibited | effect on the growth of HUVEC ([1]; Example 1, 0.1-20 mM, 48 hrs, listed as 2-deoxy-D-glucose): inhibit both; inhibition at 1000 µM ([1]; Homo sapiens, HUVEC, 1 mM, 48 hrs): 70%; effect on the luminal formation ([2]; 10 days, listed as 2-deoxy-D-glucose): inhibit both; effect on the luminal formation of HUVEC [2]: inhibitory effect was observed; also recorded: much stronger action; inhibition at 100 µM ([2]; Homo sapiens, 0.1 mM): 70%; inhibition at 500 µM ([2]; Homo sapiens, 0.5 mM): 95%; antagonism of the luminal formation inhibitory effect by D-glucose [2]: antagonized; inhibition of the acceleration of luminal formation by VEGF [2]: inhibit the acceleration by VEGF
VEGF | – | – | – | – | – | accelerated | – | cell number in comparison with the control group ([1]; 10 ng/mL, 48 hrs): 1.7±0.5 times; luminal area in comparison to the control group ([2]; 10 ng/mL, 10 days): 2.8±0.6 times
O=C(CO)[C@H](O)[C@H](O)[C@H](O)CO [PSI, D-psicose] | – | no remarkable effect | – | – | no problem | – | – | –
O=C[C@H](O)[C@@H](O)[C@H](O)[C@H](O)CO [D-glucose] | no difference; also recorded: does not inhibit | – | – | does not inhibit | – | – | – | share of the chair type C1 [4]: ~100%
O=C[C@@H](O)[C@@H](O)[C@H](O)[C@H](O)CO [MAN, D-mannose] | effect was confirmed; also recorded: inhibitory effect for growth | inhibitory effect was observed | antagonized | no influence | – | inhibitory effect | inhibited | inhibition at 20000 µM ([1]; Homo sapiens, HUVEC, 48 hrs): 40 to 80%
OC[C@@H](O)[C@@H](O)[C@@H](O)[C@@H](O)CO [allitol] | – | – | – | – | no problem | – | – | –
